Values of other authors, collected in patent US9376416B2, “Composition containing scirpusin B, and process for producing composition containing scirpusin B” (MORINAGA & CO., LTD., priority 2010, dated 2016).

Tests used:
HIV = details: reported in Non-Patent Citation 1
xanthine oxidase = xanthine oxidase (Homo sapiens, UniProt P47989); details: reported in Non-Patent Citation 4
[1] = reported in Non-Patent Citation 2
α-amylase = details: reported in Non-Patent Citation 3 (mouse α-amylase)

xanthine oxidase, sequence (P47989 whole entry, species assumed): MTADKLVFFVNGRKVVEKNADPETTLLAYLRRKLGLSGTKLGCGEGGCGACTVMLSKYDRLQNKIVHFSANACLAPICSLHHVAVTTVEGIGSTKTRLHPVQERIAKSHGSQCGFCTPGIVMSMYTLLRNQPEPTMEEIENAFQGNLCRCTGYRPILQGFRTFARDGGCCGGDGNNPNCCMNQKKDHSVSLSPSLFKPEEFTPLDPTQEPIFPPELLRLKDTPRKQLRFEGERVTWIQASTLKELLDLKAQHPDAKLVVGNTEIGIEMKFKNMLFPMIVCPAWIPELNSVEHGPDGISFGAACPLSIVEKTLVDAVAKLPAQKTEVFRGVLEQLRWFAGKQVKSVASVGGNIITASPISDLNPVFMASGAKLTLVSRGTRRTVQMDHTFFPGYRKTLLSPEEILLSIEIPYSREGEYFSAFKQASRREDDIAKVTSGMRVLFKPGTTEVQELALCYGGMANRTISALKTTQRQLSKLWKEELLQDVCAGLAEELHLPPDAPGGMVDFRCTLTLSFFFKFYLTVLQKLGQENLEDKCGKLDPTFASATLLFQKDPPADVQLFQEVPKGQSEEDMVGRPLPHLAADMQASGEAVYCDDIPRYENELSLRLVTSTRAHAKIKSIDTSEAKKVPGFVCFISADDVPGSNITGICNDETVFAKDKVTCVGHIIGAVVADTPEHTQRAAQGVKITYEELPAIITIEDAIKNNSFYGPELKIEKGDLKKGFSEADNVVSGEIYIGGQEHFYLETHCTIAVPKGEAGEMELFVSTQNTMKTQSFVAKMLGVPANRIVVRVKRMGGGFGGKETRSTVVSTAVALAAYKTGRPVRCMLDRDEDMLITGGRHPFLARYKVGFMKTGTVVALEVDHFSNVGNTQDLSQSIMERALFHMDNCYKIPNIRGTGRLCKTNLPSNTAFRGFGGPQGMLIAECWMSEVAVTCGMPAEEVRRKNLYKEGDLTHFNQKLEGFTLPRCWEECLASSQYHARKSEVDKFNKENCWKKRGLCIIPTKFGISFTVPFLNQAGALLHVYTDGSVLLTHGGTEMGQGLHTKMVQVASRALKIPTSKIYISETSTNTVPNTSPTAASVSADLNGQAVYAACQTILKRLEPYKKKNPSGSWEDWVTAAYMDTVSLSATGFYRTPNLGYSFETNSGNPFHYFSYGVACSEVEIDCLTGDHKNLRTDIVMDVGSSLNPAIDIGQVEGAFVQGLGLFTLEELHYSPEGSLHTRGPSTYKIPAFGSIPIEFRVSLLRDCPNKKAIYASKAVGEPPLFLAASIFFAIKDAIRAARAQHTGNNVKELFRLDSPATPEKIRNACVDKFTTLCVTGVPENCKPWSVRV

For `Oc1cc(O)cc(C2c3c(/C=C/c4ccc(O)c(O)c4)cc(O)cc3OC2c2ccc(O)c(O)c2)c1` (stereo not shown) [scirpusin B], the anti-HIV activity (HIV) is listed as “has anti-HIV activity”, the “xanthine oxidase inhibitory activity” value (xanthine oxidase) is listed as “has xanthine oxidase inhibitory activity” and the “superoxide anion removal activity” value [1] is listed as “has superoxide anion removal activity”. For the same compound, the “α-amylase activity inhibitory activity” value (α-amylase) was “has α-amylase activity inhibitory activity”.
